Like-named read-outs stand apart in the source and are kept apart here. Bridge positions count the residues as written; N and C are the ends. Peptide text beside a SMILES is read from it. Some results are limits rather than exact numbers.

The target of one series is T1, KLK5 (Homo sapiens, UniProt Q9Y337).
T1 construct: purchased R&D Systems 1108-SE
T1 sequence (Q9Y337 23-293): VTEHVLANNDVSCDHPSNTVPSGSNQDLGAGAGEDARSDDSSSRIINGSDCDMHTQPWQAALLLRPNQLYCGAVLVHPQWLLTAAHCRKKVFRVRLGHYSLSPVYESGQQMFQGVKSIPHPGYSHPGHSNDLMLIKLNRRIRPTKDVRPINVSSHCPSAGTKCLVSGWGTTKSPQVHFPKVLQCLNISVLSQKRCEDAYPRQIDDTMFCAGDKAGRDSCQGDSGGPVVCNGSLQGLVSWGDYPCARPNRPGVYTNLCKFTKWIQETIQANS
Put plainly: Protease activity assay: inhibition of recombinant KLK5 (Boc-VPR-AMC substrate). In kind it is biochemical. Here is the method:
Inhibitory activity against KLK5 was evaluated using the fluorogenic substrate Boc-VPR-AMC for KLK5 (Table ). […] The P1–P1′ reactive site (Arg5 to Ser6) is critical for inhibitor binding, with the P1′ position contributing up to 50% of the total association energy. , The conserved serine at P1′ in Bowman-Birk inhibitors (BBIs) is essential for function. […] Preservation of serine in the P1′ position restored inhibitory activity seen in 5 and 6. Preserving the native serine restored efficacy to the nanomolar range (5: 31 ± 7 nM; 6: 114 ± 11 nM).
Methods for biological experiment
SFTI analogues were created by individual amino acid substitutions in PYMOL (Python Molecular Graphics System) using the existing solution NMR structure of native SFTI - 1 (1JBL) found in the RCSB (Research Collaboratory for Structural Bioinformatics) database. Residues of 2 were mutated as follows: L5R, I10H, and F12W with conserved SFTI-1 backbone structure. Other SFTI based analogues were further modified using PYMOL. Currently, there are no SFTI-1 and Kallikrein 5 co-crystal structures found in the RCSB database. Superimposing the existing crystal structure of SFTI-1 and Trypsin complex (4XOJ) with Kallikrein 5 crystal structure (2PSX) was performed with PYMOL. Ab-initio docking between KLK5 and 2 were performed with HADDOCK 2.4 1, 2, with binding active site parameter set to Arg2, Cys3, Thr4, Arg5, Ser6 for 2 and Ser195, His57, and Asp102 for KLK5 catalytic triad. PRODIGY 3-5, set at 25 °C, was used to predict dissociation constant and binding interactions of docked clusters. Structural visualization and alignment were performed with PYMOL 6, and comparative sequence analysis was performed with MEGA11 7.
A fluorescence spectrometer using SpectraMax® i3x plate reader (Molecular Devices, United States) was used to measure the relative fluorescence unit (RFU) on a 96-well black microplate (Grenier Bio-one, cat no. 655074). The wavelengths were set to 360/460 nm (excitation/emission) for the substrate Boc-VPR-AMC (Bachem AG, cat no. 4003460) and 320/405nm for the substrate Mca-RPKPVE-Nval-WRK(Dnp)-NH2 Fluorogenic MMP Substrate (R&D Systems Biotechne, cat no.ES002). The Boc-VPR-AMC stock solution was prepared by dissolving the solid form in dimethyl sulfoxide to 100 mM. Mca-RPKPVE-Nval-WRK(Dnp)-NH2 fluorogenic MMP Substrate is supplied as stock solution at 10.0 mg/mL in dimethyl sulfoxide. Boc-VPR-AMC was used as a substrate for KLK5, 8 and 14. Mca-RPKPVE-Nval-WRK(Dnp)-NH2 was used as a substrate for KLK7. The ligand-only solution serves as a negative control (minimum RFU, 100% inhibition), and enzyme-only was served as positive (maximum RFU, 0% inhibition). The activities of proteases were measured and readout against the standard curve made in serial dilutions of tested recombinant KLKs, ranging from 0nM to 60nM. Each assay was done in triplicates and repeated at least for three times […]
Assessment of analogue mediated inhibition of KLK5, KLK7, KLK8, and KLK14 […]
Recombinant KLK5 (R&D Systems, cat no. 1108-SE) was diluted to a final concentration of 10 nM in 1X PBS (pH 8.0). KLK5 was pre -incubated on ice for 1 hour with serial dilutions of SFTI-derived analogues to assess inhibitory activity. After incubation, 20 µL of each mixture was transferred to we lls of a 96-well microplate in triplicates. The enzymatic reaction was initiated by adding 100 µL of Boc -VPR-AMC substrate (final concentration 100 µM) to each well. Fluorescence (RFU) was measured using a SpectraMax® i3x plate reader with chamber temperature maintained at 37°C. Readings were started at 0 minutes (baseline) and another […]
Recombinant KLK7 (R&D Systems , cat no. 2624-SE) and KLK14 (R&D Systems, cat no. 2664-SE) were activated by adding 1 mM CaCl ₂ 0.05% v/v Brij-35 (Sigma, cat no. […]
incubated at 37°C for 1 hour. Reactions were stopped by adding EDTA to a final concentration of 50 mM (Sigma, cat no. EDS-100G) KLK8 (catalytic domain only; R&D Systems, cat no. 2025-SE-010) was activated separately with 11 nM lysyl […]

The conditions of series [1]: amide bond, 42-membered ring, then NH4HCO3 air oxidation, 2 steps.
For the next series, the target named is T2, KLK14 (UniProt Q9P0G3).
T2 sequence (Q9P0G3 41-267, species assumed, looked up): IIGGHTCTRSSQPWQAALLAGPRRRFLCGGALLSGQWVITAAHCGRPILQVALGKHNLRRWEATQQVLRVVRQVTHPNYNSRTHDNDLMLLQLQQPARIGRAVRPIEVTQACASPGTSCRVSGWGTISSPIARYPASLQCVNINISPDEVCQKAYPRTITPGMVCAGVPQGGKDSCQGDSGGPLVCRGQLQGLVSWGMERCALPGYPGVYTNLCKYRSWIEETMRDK
Nature of the series: enzyme inhibition assay (fluorogenic substrate); selectivity: inhibition of KLK7, KLK8 or KLK14 activity by the peptide, n = 3; substrates and conditions in the Supporting Information.

The target of another series is T3, KLK8 (UniProt O60259 33-260).
T3 construct: Kallikrein 8 (KLK8); construct and source are in the Supporting Information
T3 sequence (looked up): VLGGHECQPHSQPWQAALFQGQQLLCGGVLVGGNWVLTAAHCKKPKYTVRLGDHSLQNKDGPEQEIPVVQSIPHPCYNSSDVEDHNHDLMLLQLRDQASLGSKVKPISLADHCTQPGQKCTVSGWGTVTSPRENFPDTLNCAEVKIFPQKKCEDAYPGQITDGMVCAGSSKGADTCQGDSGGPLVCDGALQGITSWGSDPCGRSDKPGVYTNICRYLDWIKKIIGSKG
Described as above. Conditions: both partners purified.

In series [2] the target is Kallikrein-related peptidase 5 (KLK5) (UniProt Q9Y337 23-293). Put plainly: enzyme inhibition assay (fluorogenic substrate); inhibition of KLK5 activity by the peptide, fluorogenic substrate Boc-VPR-AMC, n = 3; conditions in the Supporting Information. Conditions: both partners purified.
Another series concerns the target KLK7 (Homo sapiens, UniProt P49862). Put plainly: enzyme inhibition assay (fluorogenic substrate); selectivity: inhibition of KLK7, KLK8 or KLK14 activity by the peptide, n = 3; substrates and conditions in the Supporting Information.
The mark [3] stands for this setting: MESNa/TCEP (N-to-S acyl shift, NCL), 0.1 M sodium phosphate pH 5.8, 50.0 °C.
The mark [4] stands for this setting: NaNO2, MPAA (NCL), TCEP, 6 M guanidinium chloride buffer, 1.0 mM, 25.0 °C.

For `CC[C@H](C)[C@@H]1NC(=O)[C@H](CO)NC(=O)[C@H](CCCNC(=N)N)NC(=O)[C@H]([C@@H](C)O)NC(=O)[C@@H]2CSSC[C@H](NC(=O)[C@H](Cc3c[nH]cn3)NC(=O)[C@@H]3CCCN3C(=O)[C@@H]3CCCN3C1=O)C(=O)N[C@@H](Cc1c[nH]c3ccccc13)C(=O)N1CCC[C@H]1C(=O)N[C@@H](CC(=O)O)C(=O)NCC(=O)N[C@@H](CCCNC(=N)N)C(=O)N2` [compound 2] (cyclo(CTRSIPPHCWPDGR); disulfide 1-9), the IC50 on KLK5 (n = 3, 10 nM KLK5, Boc-VPR-AMC 100 µM, PBS pH 8.0, read-out: IC50 (n = 3)/nM for KLKs: KLK5) was 54 ± 3 nM.
`N=C(N)NCCC[C@@H]1NC(=O)[C@H](Cc2c[nH]cn2)NC(=O)[C@@H]2CSSC[C@H](NC(=O)[C@H](CCC(=O)O)NC(=O)[C@@H]3CCCN3C(=O)[C@@H]3CCCN3C(=O)[C@H](Cc3ccc(O)cc3)NC(=O)[C@H](CO)NC1=O)C(=O)N[C@@H](Cc1c[nH]c3ccccc13)C(=O)N1CCC[C@H]1C(=O)N[C@@H](CC(N)=O)C(=O)NCC(=O)N[C@@H](Cc1ccccc1)C(=O)N2` [compound 8]: on KLK5 (ratio of IC50 values), the “increase in KLK5 inhibitory potency (IC50) compared to 2” value was found to be 7 fold and the “increase in KLK5 inhibitory potency (IC50) relative to 1” value was 28 fold.
On to GFCHREYPPHCWPN, for which, in series [1] (setting [3]), the ring closure, yield after HPLC was 18%.
In turn, GFCHRSYPPECWPN came in with a ring closure, yield after HPLC in series [1] (setting [4]) of 6%.
On to GFCHRSYPPHCWPN, for which, in series [1] (setting [3]), the ring closure, yield after HPLC is 15%.
On the same count and under the same terms, with GFCTRENPPHCWPN the figure was 14%.
In series [1] (setting [4]), GFCTRSNPPECWPN returned a ring closure, yield after HPLC of 8%.
For the molecule GFCTRSNPPHCWPN, the ring closure, yield after HPLC in series [1] (setting [3]) is 15%.
On the same count and under the same terms, the result for GRCTRSIPPHCWPD reads 18%.
The molecule GSCTRSSPPECWPN returned a ring closure, yield after HPLC in series [1] (setting [4]) of 9%.
Same read-out and setting: the result for GYCTRSSPPECWPN reads 12%.

B1: SFTI analogue 9 (peptide)
peptide: cyclo(GSCTRSSPPECWPN)
modifications: disulfide 3-11 (inferred)
notes: SFTI scaffold grafted with residues of a further LEKTI domain, glutamic acid at position 10; source: synthetic peptide (hydrazide peptide, cyclised via native chemical ligation, oxidised, RP-HPLC purified)
Turning to B1, the IC50 with KLK14 and with KLK8 was > 1000 nM throughout.

B2: SFTI analogue 10 (peptide)
peptide: cyclo(GYCTRSSPPECWPN)
modifications: disulfide 3-11 (inferred)
notes: as for B1
As to B2, the IC50 in the series with KLK14 and with KLK8 was > 1000 nM in each case.

B3: SFTI analogue 5 (peptide)
peptide: cyclo(GFCTRSNPPHCWPN)
modifications: disulfide 3-11 (inferred)
notes: scaffold of analogue 2 grafted with residues of a LEKTI domain, serine kept at P1'; source: synthetic peptide (Fmoc solid-phase synthesis, cyclised via N to S acyl shift, oxidised, RP-HPLC purified)
Turning to B3, the IC50 in series [2] amounted to 31 ± 7 nM.
As for cyclo(GRCTRSIPPHCWPD) (disulfide 3-11 (inferred)) [SFTI-1 triple mutant 2, cyclo-[…]], the figures for the IC50 with KLK14 and with KLK7 were 24 nM and 534 nM, respectively.

B4: SFTI-1 triple mutant 2, cyclo-[GRCTRSIPPHCWPD] (peptide)
peptide: cyclo(GRCTRSIPPHCWPD)
modifications: disulfide 3-11 (inferred)
notes: numbers count on: the mature 14-residue cyclic peptide; source: synthetic peptide (Fmoc solid-phase synthesis, cyclised via N to S acyl shift, oxidised, RP-HPLC purified)
For B4, the IC50 in the series with KLK8 came to 373 ± 31 nM.

B5: SFTI analogue 3 (peptide)
peptide: cyclo(GFCTRENPPHCWPN)
modifications: disulfide 3-11 (inferred)
notes: scaffold of analogue 2 grafted with residues of a LEKTI domain; source: synthetic peptide (Fmoc solid-phase synthesis, cyclised via N to S acyl shift, oxidised, RP-HPLC purified)
Turning to B5, the IC50 in series [2] was 1800 ± 58 nM.

B6: SFTI analogue 6 (peptide)
peptide: cyclo(GFCHRSYPPHCWPN)
modifications: disulfide 3-11 (inferred)
notes: scaffold of analogue 2 grafted with residues of a LEKTI or LEKTI-like domain, serine kept at P1'; source: synthetic peptide (Fmoc solid-phase synthesis, cyclised via N to S acyl shift, oxidised, RP-HPLC purified)
As for B6, the IC50 in series [2] turned out to be 114 ± 11 nM.

B7: SFTI analogue 4 (peptide)
peptide: cyclo(GFCHREYPPHCWPN)
modifications: disulfide 3-11 (inferred)
notes: scaffold of analogue 2 grafted with residues of a LEKTI or LEKTI-like domain; source: synthetic peptide (Fmoc solid-phase synthesis, cyclised via N to S acyl shift, oxidised, RP-HPLC purified)
The molecule B7 displayed an IC50 in series [2] of 1490 ± 50 nM.
